In patent publication US20090298848A1, “Methods and Compositions for Treating Barth Syndrome, Cardiomyopathy, Mitochondrial Diseases and Other Conditions” (CORTENDO INVEST AB,, priority 2006, published 2009):
Where two headings read alike, the source gives them in different places.

Columns and labels:
[1] = cited from earlier work
[2] = in vivo, cited from earlier work
testosterone = assay: Testosterone suppression after single dose in rats; type: in vivo
[3] = normal volunteers, 200 mg dose of the racemic mixture, oral; cited from earlier work
[4] = Oral pharmacokinetics in dogs
plasma cholesterol = assay: Plasma cholesterol suppression in rats; type: in vivo; conditions: 200 mg drug/kg body weight
hepatic cardiolipin = assay: Measurement of hepatic cardiolipin following 91 days dosing in Beagle dogs; type: in vivo; conditions: male Beagle dogs, vs placebo
Procedure: Male Beagle dogs were treated with empty gelatin capsules (Placebo) or gelatin capsules containing sufficient 2S,4R enantiomer of ketoconazole to provide a dose of 20 mg/kg body weight. After 91 days of therapy, the amount of cardiolipin present in the livers of the dogs was determined. The amount of cardiolipin with fatty acids of the different indicated classes was determined independently. SFA, saturated fatty acids; MUFA, […] fatty acids; PUFA, poly-unsaturated fatty acid; n3, fatty acids in which the first double bond is at C3; n6, fatty acids in which the first double bond is at C6; n9, fatty acids in which the first double bond is at C9.
Male Beagle dogs were treated with empty gelatin capsules (Placebo) or gelatin capsules containing sufficient 2S,4R enantiomer of ketoconazole to provide a dose of 20 mg/kg body weight. After 91 days of therapy, the amount of cardiolipin present in the livers of the dogs was determined. The amount of cardiolipin with fatty acids of the different indicated classes was determined independently. The different classes are arranged according to the proportion that they are found in the placebo treated animals.
The effect of the 2S,4R enantiomer of ketoconazole enantiomers on cardiolipin levels in Beagle dogs was determined. The dogs were approximately 6-7 months of age at the initiation of the experiment and weighed 8-10 kg. To generate the results shown in FIGS. 1 and 2, eight male beagle dogs were used. Four of these dogs were dosed daily with an empty capsule, and four dogs were dosed with a gelatin capsule containing sufficient 2S,4R enantiomer of ketoconazole for each dog to receive 20 mg/kg body weight of the 2S,4R enantiomer of ketoconazole. The capsules were prepared weekly, placed in a labeled pill bottle and stored at 23° C.±3° C. until dispensed for dosing. […] Lipid content of the livers was determined using a combination of high pressure liquid chromatography (HPLC) and mass spectrometry. […]

corticosterone = assay: Serum corticosterone reduction after oral dosing in rats; type: in vivo; conditions: 200 mg drug/kg body weight, within 4 hours of oral dosing
[5] = Toxicology of DIO-902 in dogs, oral dosing for 28 days; conditions: oral doses up to 20 mg/kg/day for 28 days
[6] = patients with Cushing's syndrome

CC(=O)N1CCN(c2ccc(OCC3COC(Cn4ccnc4)(c4ccc(Cl)cc4Cl)O3)cc2)CC1 (racemic) [racemic ketoconazole, 1-acetyl-4-[4-[[2-(2,4-dichlorophenyl)-2-[(1H-imidazol-1-yl)-methyl]-1,3-dioxolan-4-yl]methoxy]phenyl]piperazine]
cortisol synthesis ([1]; human, in vivo): inhibits cortisol synthesis
plasma cortisol ([1]; human, in vivo): decrease plasma cortisol
cholesterol levels in humans ([1]; humans (Sonino et al. 1991; Gylling et al. 1993)): lower cholesterol levels
blood pressure [1, 6]: reduces
cholesterol [1, 6]: reduces
glucose [1, 6]: reduces
1,25 dihydroxy Vitamin D [2]: reduces
hepatotoxicity [2]: associated with hepatotoxicity
testosterone [2]: reduces
hepatotoxicity ([2]; listed as racemic mixture): can cause hepatoxicity

CC(=O)N1CCN(c2ccc(OC[C@@H]3CO[C@@](Cn4ccnc4)(c4ccc(Cl)cc4Cl)O3)cc2)CC1 (relative stereo) [DIO-902, 2S,4R cis-1-acetyl-4-[4-[[2-(2,4-dichlorophenyl)-2-(1H-imidazol-1-ylmethyl)-1,3-dioxolan-4-yl]methoxyl]phenyl]piperazine]
time for testosterone levels to return to normal (testosterone; 200 mg drug/kg body weight): ≤ 8 h
time to testosterone suppression after dosing (testosterone; 200 mg drug/kg body weight): within four hours
testosterone level (testosterone; single dose 200 mg drug/kg body weight): 10 % of basal
maximum plasma concentration [3]: approximately 3.6 μg/mL
time of maximum plasma concentration [3]: 2 h
oral availability [4]: orally available
plasma cholesterol (plasma cholesterol): suppresses plasma cholesterol
amount of cardiolipin in the livers as a function of the liver wet weight (hepatic cardiolipin; 20 mg/kg body weight daily in gelatin capsule): increased cardiolipin levels
hepatic cardiolipin by fatty acid carbon chain length and bond number, FIG. 2 (hepatic cardiolipin; 20 mg/kg): able to increase the levels of cardiolipin that contain fatty acids of a wide variety of carbon chain length with different numbers of carbon bonds
hepatic cardiolipin by fatty acid class (SFA, MUFA, PUFA, n3, n6, n9), FIG. 1 (hepatic cardiolipin; 20 mg/kg): able to increase the levels of cardiolipin that contain both saturated and unsaturated fatty acids
serum corticosterone level (corticosterone): 25 % of basal
body weight [5]: reduction in body weight
cholesterol [5]: trend to a decrease in cholesterol
food intake [5]: reduction in food intake
other serum chemistry and hematological parameters [5]: no noted changes
